{
  "source": "ChEMBL document CHEMBL5137049",
  "about": "“Discovery of a Novel Small-Molecule Inhibitor Disrupting TRBP-Dicer Interaction against Hepatocellular Carcinoma via the Modulation of microRNA Biogenesis” (J Med Chem, 2022)",
  "key": {"[1]": {"tested_on": "SK-HEP1", "assay": "Downregulation of fibronectin expression in human SK-HEP1 cells at 1 to 25 uM by Western blot analysis", "format": "functional, cell-based", "conditions": "dose 1-25 µM"}, "[2]": {"tested_on": "SK-HEP1", "assay": "Upregulation of miR-125 expression in human SK-HEP1 cells at 10 uM by qRT-PCR analysis", "format": "functional, cell-based"}, "[3]": {"tested_on": "SK-HEP1", "assay": "Downregulation of RHOB expression in human SK-HEP1 cells at 1 to 25 uM by Western blotting analysis", "format": "functional, cell-based", "conditions": "dose 1-25 µM"}, "[4]": {"tested_on": "MHCC97-L", "assay": "Inhibition of cell migration in human MHCC97-L cells assessed as reduction of cell mobility at 1 to 25 uM measured at 24 hrs by well scratch method", "format": "functional, cell-based", "conditions": "dose 1-25 µM"}, "[5]": {"tested_on": "MHCC97-L", "assay": "Upregulation of let-7 expression in human MHCC97-L cells at 10 uM by qRT-PCR analysis", "format": "functional, cell-based"}, "[6]": {"tested_on": "Mus musculus", "assay": "Upregulation of E-cadherin expression in liver of SCID mouse xenografted with human SK-HEP1 cells at 10 to 50 mg/kg, ip administered every 2 days for 4 weeks by immunohistochemical staining analysis", "format": "functional, organism-based", "conditions": "dose 10-50 mg/kg"}, "[7]": {"tested_on": "HCCLM3", "assay": "Inhibition of cell migration in human HCLLM3 cells at 1 to 25 uM measured after 24 hrs by crystal violet staining based transwell assay", "format": "functional", "conditions": "dose 1-25 µM"}, "[8]": {"assay": "Inhibition of TRBP (unknown origin) - recombinant Dicer (unknown origin) protein-protein interaction incubated for 3 hrs by GST pull-down assay", "design": "species or system Homo sapiens"}, "[9]": {"tested_on": "HepG2", "assay": "Downregulation of miR-221 expression in human HepG2 cells at 10 uM incubated for 6 hrs by qRT-PCR analysis", "format": "functional"}, "[10]": {"tested_on": "SK-HEP1", "assay": "Downregulation of N-cadherin expression in human SK-HEP1 cells at 1 to 25 uM by Western blot analysis", "format": "functional, cell-based", "conditions": "dose 1-25 µM"}, "[11]": {"tested_on": "HeLa", "assay": "Upregulation of pri-miR-30a in human HeLa cells at 10 uM incubated for 6 hrs by qRT-PCR analysis", "format": "functional, cell-based"}, "[12]": {"tested_on": "HeLa", "assay": "Upregulation of pre-miR-155 in human HeLa cells at 10 uM incubated for 6 hrs by qRT-PCR analysis", "format": "functional, cell-based"}, "[13]": {"tested_on": "SK-HEP1", "assay": "Downregulation of SUV39H1 expression in human SK-HEP1 cells at 1 to 25 uM by Western blotting analysis", "format": "functional, cell-based", "conditions": "dose 1-25 µM"}, "[14]": {"tested_on": "HeLa", "assay": "Upregulation of pre-miR-21 in human HeLa cells at 10 uM incubated for 6 hrs by qRT-PCR analysis", "format": "functional, cell-based"}, "[15]": {"tested_on": "Mus musculus", "assay": "Downregulation of vimentin expression in liver of SCID mouse xenografted with human SK-HEP1 cells at 10 to 50 mg/kg, ip administered every 2 days for 4 weeks by immunohistochemical staining analysis", "format": "functional, organism-based", "conditions": "dose 10-50 mg/kg"}, "[16]": {"tested_on": "MHCC97-L", "assay": "Downregulation of miR-135 expression in human MHCC97-L cells at 10 uM by qRT-PCR analysis", "format": "functional, cell-based"}, "[17]": {"tested_on": "HCCLM3", "assay": "Inhibition of cell migration in human HCCLM3 cells assessed as reduction of cell mobility at 1 to 25 uM measured at 24 hrs by well scratch method", "format": "functional, cell-based", "conditions": "dose 1-25 µM"}, "[18]": {"assay": "Acute toxicity in KM mouse assessed as effect on brain at 100 mg/kg, ip administered for 7 consecutive days by hematoxyin-eosin staining based analysis", "format": "organism-based", "conditions": "in vivo, 168 h, time 7 day"}, "[19]": {"tested_on": "HCCLM3", "assay": "Inhibition of cell invasion in human HCLLM3 cells at 1 to 25 uM measured after 24 hrs by crystal violet staining based transwell assay", "format": "functional", "conditions": "dose 1-25 µM"}, "[20]": {"assay": "Toxicity in SCID mouse xenografted with human MHCC97-L cells assessed as effect on kidney at 10 to 50 mg/kg, ip administered every 2 days for 4 weeks by hematoxyin-eosin staining based analysis", "format": "organism-based", "conditions": "in vivo, 672 h, dose 10-50 mg/kg"}, "[21]": {"assay": "Toxicity in SCID mouse xenografted with human MHCC97-L cells assessed as effect on liver at 10 to 50 mg/kg, ip administered every 2 days for 4 weeks by hematoxyin-eosin staining based analysis", "format": "organism-based", "conditions": "in vivo, 672 h, dose 10-50 mg/kg"}, "[22]": {"biological_target": "T1, Programmed cell death protein 4 (Homo sapiens) (UniProt Q53EL6)", "T1 sequence (whole entry)": "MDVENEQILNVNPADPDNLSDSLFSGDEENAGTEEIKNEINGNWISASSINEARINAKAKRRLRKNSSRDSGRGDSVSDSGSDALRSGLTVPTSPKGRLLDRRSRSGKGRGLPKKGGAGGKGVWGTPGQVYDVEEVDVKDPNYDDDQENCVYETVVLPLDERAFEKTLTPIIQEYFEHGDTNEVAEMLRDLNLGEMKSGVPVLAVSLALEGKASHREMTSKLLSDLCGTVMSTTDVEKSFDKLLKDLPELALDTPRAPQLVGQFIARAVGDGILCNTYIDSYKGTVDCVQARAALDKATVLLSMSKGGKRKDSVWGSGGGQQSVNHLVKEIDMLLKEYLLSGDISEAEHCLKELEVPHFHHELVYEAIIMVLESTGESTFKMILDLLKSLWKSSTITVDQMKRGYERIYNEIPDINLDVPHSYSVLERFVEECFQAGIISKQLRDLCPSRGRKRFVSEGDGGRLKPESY", "assay": "Inhibition of PDCD4 in human HeLa cells tranfected with pCI-neo-luciferase-PDCD4 3'-UTR plasmid assessed as fold change in luciferase signal by measuring relative luciferase unit by luciferase reporter assay", "format": "cell-based"}, "[23]": {"tested_on": "SK-HEP1", "assay": "Downregulation of PTEN protein expression in pCMV3-TRBP transfected human SK-HEP1 cells at 10 uM incubated for 24 hrs by Western blotting analysis", "format": "functional, cell-based"}, "[24]": {"assay": "Toxicity in SCID mouse xenografted with human MHCC97-L cells assessed as change in body weight at 10 to 50 mg/kg, ip administered every 2 days for 4 weeks and measured on alternate days", "format": "organism-based", "conditions": "in vivo, 672 h, dose 10-50 mg/kg"}, "[25]": {"tested_on": "SK-HEP1", "assay": "Antitumor activity against human SK-HEP1 cells xenografted in SCID mouse assessed as reduction in number of intrahepatic migration lesions at 10 to 25 mg/kg, ip administered every 2 days for 4 weeks by hematoxyin-eosin staining based analysis", "format": "functional, organism-based", "conditions": "dose 10-25 mg/kg"}, "[26]": {"tested_on": "HeLa", "assay": "Upregulation of pre-miR-214 in human HeLa cells at 10 uM incubated for 6 hrs by qRT-PCR analysis", "format": "functional, cell-based"}, "[27]": {"tested_on": "SK-HEP1", "assay": "Upregulation of E-cadherin expression in human SK-HEP1 cells at 1 to 25 uM by Western blotting analysis", "format": "functional, cell-based", "conditions": "dose 1-25 µM"}, "[28]": {"tested_on": "HeLa", "assay": "Upregulation of pre-miR-30a in human HeLa cells at 10 uM incubated for 6 hrs by qRT-PCR analysis", "format": "functional, cell-based"}, "[29]": {"tested_on": "SK-HEP1", "assay": "Upregulation of TIMP4 expression in human SK-HEP1 cells at 1 to 25 uM by Western blotting analysis", "format": "functional, cell-based", "conditions": "dose 1-25 µM"}, "[30]": {"assay": "Inhibition of microRNA in human HeLa cells transfected with pCI-neo-luciferase-miR-21 plasmid assessed as increase in luciferase activity by luciferase reporter assay", "format": "cell-based"}, "[31]": {"tested_on": "HeLa", "assay": "Downregulation of miR-214 expression in human HeLa cells at 10 uM incubated for 6 hrs by qRT-PCR analysis", "format": "functional"}, "[32]": {"tested_on": "HeLa", "assay": "Downregulation of miR-30A expression in human HeLa cells at 10 uM incubated for 6 hrs by qRT-PCR analysis", "format": "functional"}, "[33]": {"tested_on": "MHCC97-L", "assay": "Upregulation of miR-125 expression in human MHCC97-L cells at 10 uM by qRT-PCR analysis", "format": "functional, cell-based"}},
  "note": "Active and inactive are the calls of the source. The calls are words filed in the database; no cut-off is given here.",
  "data": [
    {"smiles": "CCOC(=O)c1nc(-c2ccc(OC)cc2)oc1C", "values": [
      {"measurement": "Activity", "setting": "[1]", "value": "Active"},
      {"measurement": "Activity", "setting": "[2]", "value": "Active"},
      {"measurement": "Activity", "setting": "[3]", "value": "Active"},
      {"measurement": "inhibition", "setting": "[4]", "value": "Active"},
      {"measurement": "Activity", "setting": "[5]", "value": "Active"},
      {"measurement": "Activity", "setting": "[6]", "value": "Active"},
      {"measurement": "inhibition", "setting": "[7]", "value": "Active"},
      {"measurement": "IC50", "setting": "[8]", "value": 12.3, "unit": "µM"},
      {"measurement": "Activity", "setting": "[9]", "value": 60, "unit": "%"},
      {"measurement": "Activity", "setting": "[10]", "value": "Active"},
      {"measurement": "Activity", "setting": "[11]", "value": "Active"},
      {"measurement": "Activity", "setting": "[12]", "value": "Active"},
      {"measurement": "Activity", "setting": "[13]", "value": "Active"},
      {"measurement": "Activity", "setting": "[14]", "value": "Active"},
      {"measurement": "Activity", "setting": "[15]", "value": "Active"},
      {"measurement": "Activity", "setting": "[16]", "value": "Active"},
      {"measurement": "inhibition", "setting": "[17]", "value": "Active"},
      {"measurement": "Activity", "setting": "[18]", "value": "Non-Toxic"},
      {"measurement": "inhibition", "setting": "[19]", "value": "Active"},
      {"measurement": "Activity", "setting": "[20]", "value": "Non-Toxic"},
      {"measurement": "Activity", "setting": "[21]", "value": "Non-Toxic"},
      {"measurement": "RLU", "setting": "[22]", "value": 2.13},
      {"measurement": "Activity", "setting": "[23]", "value": "Active"},
      {"measurement": "Activity", "setting": "[24]", "value": "Non-Toxic"},
      {"measurement": "Activity", "setting": "[25]", "value": "Active"},
      {"measurement": "Activity", "setting": "[26]", "value": "Active"},
      {"measurement": "Activity", "setting": "[27]", "value": "Active"},
      {"measurement": "Activity", "setting": "[28]", "value": "Active"},
      {"measurement": "Activity", "setting": "[29]", "value": "Active"},
      {"measurement": "EC50", "setting": "[30]", "value": 1.38, "unit": "µM"},
      {"measurement": "Activity", "setting": "[31]", "value": 60, "unit": "%"},
      {"measurement": "Activity", "setting": "[32]", "value": 60, "unit": "%"},
      {"measurement": "Activity", "setting": "[33]", "value": "Active"}
    ]}
  ]
}
